Reference: ChEMBL document CHEMBL3272305, “Synthesis and comparative skeletal muscle relaxant activity of some 2,4-imidazolidinediones and their corresponding 5-hydroxy-2,4-imidazolidinediones” (J Med Chem, 1978)
The source made the active and inactive calls. The calls are words filed in the database; no cut-off is given here.

What was measured:
[1] = (§1) Inhibition of twitch in Charles River rat diaphragm at 60 mg/L after 5 mins; assay type: functional
Mus musculus [2] = test: Induction of skeletal muscle relaxation in ip dosed albino mouse after 60 mins; assay type: functional; details: 1 h
Rattus norvegicus [3] = test: Inhibition of gastrocnemius twitch in iv dosed Sprague-Dawley rat; assay type: functional
Rattus norvegicus [4] = test: Inhibition of gastrocnemius twitch in Sprague-Dawley rat at cumulative dose of 36.6 mg/kg, iv relative to control; assay type: functional
Mus musculus [5] = organism: Mus musculus; test: Muscle relaxant efficacy index, ratio of ED50 for muscle incoordination in mouse to ED50 for induction of straub tail relaxation in albino mouse
Mus musculus [6] = organism: Mus musculus; test: Induction of straub tail relaxation in albino mouse assessed as gain of righting reflex in 1 min; assay type: functional
Mus musculus [7] = organism: Mus musculus; test: Induction of muscle incoordination in mouse after 30 mins by rotarod test; assay type: organism-based, Muscle tissue; details: in vivo, 0.5 h
[8] = Toxicity in albino mouse after 72 hrs; assay type: organism-based; details: in vivo
Mus musculus [9] = test: Induction of skeletal muscle relaxation in po dosed albino mouse after 60 mins; assay type: functional; details: 1 h
Rattus norvegicus [10] = organism: Rattus norvegicus; test: as §1; assay type: functional
[11] = Therapeutic index, ratio of LD50 for albino mouse to ED50 for induction of straub tail relaxation in albino mouse; assay type: organism-based; details: in vivo, read-out: Ratio LD50/ED50

| Structure (SMILES) | inhibition at 60 µg/mL [1] [%] | ED50 (Mus musculus [2]) [mg/kg] | ED50 (Rattus norvegicus [3]) [µmol/kg] | inhibition in vivo at 36.6 mg/kg (Rattus norvegicus [4]) [%] | Ratio ED50 (Mus musculus [5]) | ED50 (Mus musculus [6]) [mg/kg] | ED50 (Mus musculus [7]) [mg/kg] | LD50 at 72 h [8] [mg/kg] | ED50 (Mus musculus [9]) [mg/kg] | inhibition (Rattus norvegicus [10]) | selectivity ratio [11] |
| --- | --- | --- | --- | --- | --- | --- | --- | --- | --- | --- | --- |
| O=C1NC(=O)N(/N=C/c2ccc(-c3ccc([N+](=O)[O-])cc3)o2)C1O (stereo not given) | ≥ 40 | > 1000 | 15 | -76 | <0.17 | > 1000 | 171 | > 5000 | > 1000 | – | – |
| Nc1ccc(-c2ccc(/C=N/N3CC(=O)NC3=O)o2)cc1 | – | > 1000 | > 129 | -19 | – | > 1000 | > 1000 | 1040 | > 1000 | inactive | – |
| O=C1NC(=O)N(/N=C/c2ccc(-c3cccc(C(F)(F)F)c3)o2)C1O (stereo not given) | ≥ 40 | 244 | 96 | -57 | <0.09 | > 1000 | 85 | 563 | 166 | – | – |
| O=C1NC(=O)N(/N=C/c2ccc(-c3ccc(F)cc3)o2)C1O (stereo not given) | ≥ 40 | 1000 | 91 | -53 | <0.24 | > 1000 | 240 | 784 | > 1000 | – | – |
| N#Cc1ccc(-c2ccc(/C=N/N3CC(=O)NC3=O)o2)cc1 | ≥ 40 | > 1000 | 20 | -76 | <0.09 | > 1000 | 91 | 2340 | > 1000 | – | – |
| N#Cc1ccc(-c2ccc(/C=N/N3C(=O)NC(=O)C3O)o2)cc1 (stereo not given) | ≥ 40 | 156 | 25 | -69 | 0.13 | 743 | 96 | 104 | > 1000 | – | 0.14 |
| O=C1CN(/N=C/c2ccc(-c3ccc(Cl)cc3)o2)C(=O)N1 | ≥ 40 | 1000 | 22 | -74 | <0.04 | > 1000 | 40 | > 6000 | > 1000 | – | – |
| O=C1NC(=O)N(/N=C/c2ccc(-c3ccc(Cl)c(Cl)c3)o2)C1O (stereo not given) | ≥ 40 | 72 | 19 | -82 | 0.3 | 34 | 10 | 209 | 109 | – | 6.1 |
| O=C1CN(/N=C/c2ccc(-c3ccc([N+](=O)[O-])cc3)o2)C(O)=N1 [DANTROLENE] | ≥ 40 | 83 | 7 | -80 | 2.7 | 56 | 153 | > 7000 | 490 | – | 124 |
| O=C1CN(/N=C/c2ccc(-c3ccc(Cl)c(Cl)c3)o2)C(=O)N1 [CLODANOLENE] | ≥ 40 | 647 | 10 | -77 | <0.18 | > 1000 | 181 | > 7000 | > 1000 | – | – |
| O=C1NC(=O)N(/N=C/c2ccc(-c3ccc(Cl)cc3)o2)C1O (stereo not given) | ≥ 40 | > 1000 | 16 | -77 | <0.06 | > 1000 | 63 | 522 | > 1000 | – | – |
| CC(=O)Nc1ccc(-c2ccc(/C=N/N3CC(=O)NC3=O)o2)cc1 | – | > 1000 | > 112 | 4 | – | > 1000 | > 1000 | 1140 | > 1000 | inactive | – |
| O=C1CN(/N=C/c2ccc(-c3ccc(F)cc3)o2)C(=O)N1 | ≥ 40 | 105 | 38 | -71 | 0.4 | 950 | 369 | 1400 | 112 | – | 1.5 |
| CC(=O)Nc1ccc(-c2ccc(/C=N/N3C(=O)NC(=O)C3O)o2)cc1 (stereo not given) | – | > 1000 | > 107 | -10 | – | > 1000 | > 1000 | 673 | > 1000 | inactive | – |
| O=C1CN(/N=C/c2ccc(-c3cccc(C(F)(F)F)c3)o2)C(=O)N1 | ≥ 40 | 143 | 50 | -74 | 0.85 | 184 | 166 | 274 | 647 | – | 1.4 |
| Nc1ccc(-c2ccc(/C=N/N3C(=O)NC(=O)C3O)o2)cc1 (stereo not given) | ≥ 40 | > 1000 | 39 | -67 | – | > 1000 | > 1000 | 192 | > 1000 | – | – |
